This is an account of results in ChEMBL document CHEMBL3124754, “Delivery of a lactose derivative of endomorphin 1 to the brain via the olfactory epithelial pathway” (Bioorg Med Chem Lett, 2014).

Series [1] is described as follows: Drug uptake in Sprague-Dawley rat blood at 2 mg/kg administered via nasal cavity after 10 mins. The series is classed as ADME, organism-based. On the set-up: dose 2 mg/kg. The following applies: inhaled or intranasal, read-out: Drug uptake.
Series [2] in a line: Drug uptake in Sprague-Dawley rat brain at 2 mg/kg administered via nasal cavity after 10 mins. It is filed as ADME, organism-based. The note with it: inhaled or intranasal, read-out: Drug uptake. On the set-up: dose 2 mg/kg.
A short description of series [3]: Drug uptake in Sprague-Dawley rat olfactory bulb at 2 mg/kg administered via nasal cavity after 10 mins. The series is classed as ADME, organism-based. Details: dose 2 mg/kg. The note with it: inhaled or intranasal, read-out: Drug uptake.
Series [4] deals with Brain. Briefly: Drug uptake in rat brain homogenate at 6.5 uM after 30 mins by LC-MS/MS analysis. The series is classed as ADME, tissue-based. The following applies: in vivo, 0.5 h.
The test system of series [5] is Brain. Put plainly: Drug uptake in rat brain homogenate at 18.2 uM after 30 mins by LC-MS/MS analysis. The following applies: in vivo, 0.5 h. It is filed as ADME, tissue-based.
Series [6] is described as follows: Half life in human plasma by RP-HPLC analysis. It is filed as ADME, cell-free.
Another series relates to Plasma. Briefly: Drug degradation in human plasma assessed as N-lactose endomorphin1 formation after 2 mins by RP-HPLC analysis. The series is classed as ADME, cell-free.

By half-life is commonly meant the time needed for the level to fall by half in the phase considered. A lower half-life goes with fast loss. For `NC(=O)[C@H](Cc1ccccc1)NC(=O)[C@H](Cc1c[nH]c2ccccc12)NC(=O)[C@@H]1CCCN1C(=O)[C@H](Cc1ccc(O)cc1)NC(=O)CCC(=O)N[C@@H]1O[C@H](CO)[C@@H](O[C@@H]2O[C@H](CO)[C@H](O)[C@H](O)[C@H]2O)[C@H](O)[C@H]1O`, the concentration at 10 min in series [1] is 1.6 nM; in series [2], 4 nM; in series [3], 514 nM. Further, the Drug uptake in the series on Brain [4] stood at 3.4 µM; in the series with Brain [5], 18.12 µM. For the same compound, the half-life in series [6] was determined as 12.9 min.
`CC(=O)OC[C@H]1O[C@@H](O[C@H]2[C@H](OC(C)=O)[C@@H](OC(C)=O)[C@H](NC(=O)CCC(=O)N[C@@H](Cc3ccc(O)cc3)C(=O)N3CCC[C@H]3C(=O)N[C@@H](Cc3c[nH]c4ccccc34)C(=O)N[C@@H](Cc3ccccc3)C(N)=O)O[C@@H]2COC(C)=O)[C@H](OC(C)=O)[C@@H](OC(C)=O)[C@H]1OC(C)=O`: the Stability result in the series on Plasma is “Unstable”.
`NC(=O)[C@H](Cc1ccccc1)NC(=O)[C@H](Cc1c[nH]c2ccccc12)NC(=O)[C@@H]1CCCN1C(=O)[C@@H](N)Cc1ccc(O)cc1` [ENDOMORPHIN-1] registered a half-life in series [6] of 5.9 min.
